Source: patent US4973578A, “Synthetic peptides derived from the alpha-subunit of human lycoprotein hormones” (Mayo Foundation for Medical Education and Research, priority 1988, dated 1990)
Residues, ends and D or L forms follow the SMILES beside them.

How the values were obtained:
[1] = biological target: T1, TSH receptor on human thyroid membranes (Homo sapiens, UniProt P16473); test: TSH radioreceptor assay: inhibition of 125I-bTSH binding to human thyroid membrane preparations
T1 construct: Thyroid tissue obtained at surgery from patients with Graves' disease was prepared as described by Takahashi et al; from tissue; host or cells: human thyroid tissue from Graves' disease patients, 2000xg membrane fraction
T1 sequence (P16473 21-764): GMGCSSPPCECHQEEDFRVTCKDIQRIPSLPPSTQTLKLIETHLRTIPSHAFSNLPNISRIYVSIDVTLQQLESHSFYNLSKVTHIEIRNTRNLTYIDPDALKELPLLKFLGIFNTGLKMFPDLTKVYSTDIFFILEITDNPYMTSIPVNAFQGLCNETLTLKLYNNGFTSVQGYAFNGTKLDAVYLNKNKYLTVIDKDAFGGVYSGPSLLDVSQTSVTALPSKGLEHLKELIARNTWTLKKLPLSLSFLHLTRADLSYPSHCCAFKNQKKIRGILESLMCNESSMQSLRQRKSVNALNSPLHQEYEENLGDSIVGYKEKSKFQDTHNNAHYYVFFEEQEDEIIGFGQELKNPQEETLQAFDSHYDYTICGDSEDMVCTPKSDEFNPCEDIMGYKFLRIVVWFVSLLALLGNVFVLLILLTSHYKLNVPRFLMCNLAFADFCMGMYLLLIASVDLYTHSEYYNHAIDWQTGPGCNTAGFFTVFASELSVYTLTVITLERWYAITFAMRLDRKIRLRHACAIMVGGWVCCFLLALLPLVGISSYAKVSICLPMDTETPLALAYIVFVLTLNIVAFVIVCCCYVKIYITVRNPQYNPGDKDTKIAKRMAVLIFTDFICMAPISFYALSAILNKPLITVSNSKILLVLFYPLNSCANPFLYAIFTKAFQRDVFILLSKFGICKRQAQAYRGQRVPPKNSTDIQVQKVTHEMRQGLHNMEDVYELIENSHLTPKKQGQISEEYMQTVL
Procedure: Thyroid tissue obtained at surgery from patients with Graves' disease was prepared as described by Takahashi et al., J. Clin. Endocrinol. Metab. 47:870 (1978), the disclosure of which is incorporated herein. Briefly, the tissue was dissected free of fibrous material, minced with scissors, and homogenized with Polytron homogenizer. The 2000×g fraction was collected by centrifugation, washed and resuspended in 40 mM Tris, 0.1% Bovine Serum Albumin (BSA) pH 7.4 at a concentration of 100 mg equivalents of wet tissue per milliliter. The preparation was stored at -70° C. until used for assay.
Highly purified bovine TSH (30 IU/mg, supplied by Dr. J. G. Pierce, UCLA) was radio-iodinated (Na^125 I, Amersham, Chicago) by a gentle lactoperoxidase procedure described by Takahashi et al., supra, then purified by Sephadex G-100 chromatography.
The membrane assay incubation mixture consisted of […] of the 2000×g membrane fraction, 0.125 ng ^125 I bTSH (approximately 20,000 cpm, 5×10^-12 M), 100 ul of 1% Triton X-100 and noted amounts of test materials in a final volume of 0.5 ml of 40 mM Tris-HCl pH 7.4 plus 0.1% BSA. Nonspecific binding was determined by addition of excess unlabeled bTSH (200 mU/ml, Sigma, St. Louis). After 2 hrs incubation at 25° C., 200 ul of 5 mg/ml bovine gamma globulin and 1 ml 30% polyethylene glycol 6000 (Baker, Phillipsburg, N.J.) in 1M NaCl was added to each tube and the tubes centrifuged at 4000 rpm for 25 minutes. The supernatants were aspirated and pellets counted in a gamma counter. Specific binding averaged 25% of total counts.
FIG. 1 reports 5×10^-12 M labeled bTSH incubated with 10 mg equivalents (wet weight) of 2000×g fraction of thyroid membranes with varying concentrations of unlabeled TSH or synthetic α-subunit peptides. Nonspecific binding was determined in the presence of excess unlabeled TSH.

[2] = test system: cAMP production (adenylate cyclase activity) in FRTL-5 cells; test: TSH bioassay, cAMP stimulation in FRTL-5 cells; assay type: cell-based, rat; conditions: at least 2 separate assays
Procedure: FRTL-5 cells were maintained in Ham's F-12 medium supplemented with 5% calf serum and a 6 hormone preparation including 10 mU/ml bTSH as described by Ambesi-Impiombato et al., Proc. Natl. Acad. Sci. U.S.A., 77:3455 (1980), the disclosure of which is incorporated herein. For all assays herein described, the cells were plated in 24 well plates and grown for 3 days at 37° C. then maintained for 5-7 days in medium supplemented with 10 ug insulin alone prior to assay.
The bioassay was a modification of those previously described by Bidey et al, J. Endocrinol., 101:269 (1984); and Kasagi et al., ACTA Endocrinol., 115:30 (1987). To duplicate culture wells were added varying concentrations of test materials (see below) in a final volume of 300 ul of NaCl free HBSS with 0.5 mM iso-butyl-methyl-xanthine (IBMX, Sigma, St. Louis). In stimulation assays, only synthetic α-subunit peptides were added to the incubation medium. […] Basal cAMP levels were determined in the presence of HBSS and IBMX alone. In inhibition assays percent inhibition was calculated as follows: [formula]
The standard curve for TSH is shown in FIG. 3 and reports TSH deprived FRTL-5 cells incubated for 2 hrs. in buffer (NaCl-free HBSS, 200 mM sucrose, 0.5% BSA, 0.5 mM IBMX) with increasing concentrations of bTSH. cAMP released into the incubation media was measured by RIA. […]

Q: For `CSCC[C@H](NC(=O)[C@H](CS)NC(=O)[C@H](CCC(N)=O)NC(=O)[C@@H](N)CC(C)C)C(=O)NCC(=O)N[C@@H](CS)C(=O)N[C@@H](CS)C(=O)N[C@@H](Cc1ccccc1)C(=O)N[C@@H](CO)C(=O)N[C@@H](CCCNC(=N)N)C(=O)N[C@@H](C)C(=O)N[C@@H](Cc1ccc(O)cc1)C(=O)N1CCC[C@H]1C(=O)N[C@H](C(=O)N1CCC[C@H]1C(=O)N[C@@H](CC(C)C)C(=O)N[C@@H](CCCNC(=N)N)C(=O)N[C@@H](CO)C(=O)N[C@@H](CCCCN)C(=O)N[C@@H](CCCCN)C(=O)N[C@H](C(N)=O)[C@@H](C)O)[C@@H](C)O` [α26-46, Leu--Gln--Cys--Met--Gly--Cys--Cys--Phe--Ser--Arg--Ala--Tyr--Pro--Thr--Pro--Leu--Arg--Ser--Lys--Lys--Thr--(NH2)] (H-LQCMGCCFSRAYPTPLRSKKT-NH2), which “displacement of 125I-bTSH label” value ([1]; at concentrations greater than 1×10^-5 m, FIG. 1) is on record?
A: Its value is “more than 80%”.

Q: And the IC50 ([1]; human thyroid membrane homogenates, ± S.E., read-out: bTSH ED50 (effective dose necessary to inhibit binding of 125I-bTSH by 50%))?
A: The IC50 was 10.8 ± 0.3 µM.

Q: What about the “inhibition of 125I-bTSH binding, result in words” value ([1]; human thyroid membranes, FIG. 1) of the same compound?
A: Its value is “dose dependent inhibition”.

Q: And the “stimulation of cAMP levels over basal by peptide alone, in words” value [2]?
A: Its value is “no ability to stimulate cAMP production”.
